Patent US20250340556A1, “PYRIMIDOPYRIMIDONE COMPOUNDS AND METHODS OF USE THEREOF” (Soltego, Inc., priority 2022, published 2025)
pEC50, pIC50: −log10 of the molar value. Read-outs that look alike come from different tables or passages of the source.

Key:
[1] = ester bond
B16 4A5 cells = experiment: B16 4A5 cell viability, MTS assay; format: cell-based, mouse; settings: 72 h
Description: B16 4A5 cells were seeded in 24-well plates at 20,000 cells/well, 24 h before the beginning of the treatment with test compounds at 5 concentrations, in triplicates (n=3). […] Additionally, DMSO at 0.1%, used for solubilization of the test compounds, was tested in parallel. The treatments were performed in culture medium containing only 1% of FBS. […] The effects of the compounds on B16 4A5 viability was assessed. To this purpose, cells were incubated during 72 h with 5 concentrations of the compounds, were left untreated, treated with SDS or with DMSO 0.1%.

SIK (h) / SIK1 = SIK (h) / SIK1 (Homo sapiens (Human), UniProt P57059); experiment: SIK1 kinase activity, Eurofins KinaseProfiler ([γ-33P]-ATP filter assay); format: biochemical
Description: (§1) SIK1, 2 and 3 kinase activity was assessed using a Eurofins Cerep S.A. (‘Eurofins’) KinaseProfiler. All compounds were prepared to 50× final assay concentration in 100% DMSO. This working stock of the compound was added to the assay well as the first component in the reaction, followed by the remaining components as detailed in the general assay protocols below. In the standard KinaseProfiler service, there is no pre-incubation step between the compound and the kinase prior to initiation of the reaction. The positive control well contains all components of the reaction, except the compound of interest; however, DMSO (at a final concentration of 2%) is included in these wells to control for solvent effects. The blank wells contain all components of the reaction, with a reference inhibitor replacing the compound of interest. This abolishes kinase activity and establishes the base-line (0% kinase activity remaining).
(§2) SIK (h) was incubated with 8 mM MOPS pH 7.0, 0.2 mM EDTA, 100 μM […], 10 mM Magnesium acetate and [γ-33P]-ATP (specific activity and concentration as required). The reaction was initiated by the addition of the Mg/ATP mix. After incubation for 40 minutes at room temperature, the reaction was stopped by the addition of phosphoric acid to a concentration of 0.5%, 10 μL of the reaction was then spotted onto a P30 filtermat and washed four times for 4 minutes in 0.425% phosphoric acid and once in methanol prior to drying and scintillation counting.

SIK3 (h) = SIK3 (h) (Homo sapiens (Human), UniProt Q9Y2K2); experiment: SIK3 kinase activity, Eurofins KinaseProfiler ([γ-33P]-ATP filter assay); format: biochemical
Description: as §1
as §2, with “SIK3 (h) was” for “SIK (h) was”, “acetate and [γ-33P-ATP](specific activity and” for “acetate and [γ-33P]-ATP (specific activity and”, “the reaction is stopped by” for “the reaction was stopped by”, “0.5%, […] of the” for “0.5%, 10 μL of the”

SIK2 (h) = SIK2 (h) (Homo sapiens (Human), UniProt Q9H0K1); experiment: SIK2 kinase activity, Eurofins KinaseProfiler ([γ-33P]-ATP filter assay); format: biochemical; settings: for IC50: read-out: IC50 nM SIK2
Description: as §1
as §2, with “SIK2” for “SIK”, “[γ-33P-ATP](specific” for “[γ-33P]-ATP (specific”

SIK1 = SIK1 (Homo sapiens (Human), UniProt P57059); experiment: cell-based
[2] = tested on: living human skin explants; experiment: Cell viability of living human skin explants, Masson's trichrome staining (Example 8); format: cell-based; settings: 1% topical in vehicle E
Description: All the tested products were diluted in the vehicle noted as E (Ethanol 65%, Propylene glycol 25%, Transcutol 10%). The diluted solutions were stored at 4° C. within the study period. 36 human skin explants of an average diameter of 11 mm (+1 mm) were prepared on an abdoplasty coming from a person (reference: P2462-AB53) with a III phototype. The explants were kept in survival in BEM culture medium (BIO-EC's Explants Medium) at 37° C. in a humid, 5%-CO2 atmosphere. Study is performed on human skin tissue, obtained from surgical residues in full respect with the Declaration of Helsinki and the article L. 1243-4 of the French Public Health Code.
The excipient E and the tested products were applied topically at a rate of 2 μL per 1 cm^2 explant (˜2 mg/cm^2) and spread and gently rubbed for 10 seconds using a small spatula on day 0 (DO), D3, D5, D7 and D10. […] The culture medium was half renewed (1 ml per well) on D3, D5, D7 and D10. On D0, D3, D4, D5, D6, D7 and D10, the culture media of the irradiated explants (UV) were replaced by HBSS (Hank's Balanced Saline Solution; 1 ml per explant). Then, the explants of the “UV” batch were irradiated using a UV simulator Vibert Lourmat RMX 3W with a dose of 2.25 J/cm^2 of UVA (with 6-8% of UVB) corresponding to 0.5 MED (minimal erythemal dose) on a skin with a III phototype. At the end of the UV irradiation, the explants form the batch TUV were put back in 2 mL of BEM medium. On D0, the 3 explants from the batch TO were collected and cut in two parts. Half was fixed in buffered formalin solution and half was frozen at −80° C. On D10, 3 explants from the concerned batches were collected and treated in the same way than in DO. According to the dispositions mentioned in the study plan, the days of treatments, irradiations and sampling were adjusted to the schedule of working days. After fixation for 24 hours in buffered formalin, the samples were dehydrated and impregnated in paraffin using a Leica PEARL dehydration automat. The samples were embedded using a Leica EG 1160 embedding station. 5-μm-thick sections were made using a Leica RM 2125 Minot-type microtome, and the sections were mounted on Superfrost® histological glass slides. The frozen samples were cut into 7-μm-thick sections using a Leica CM 3050 cryostat. Sections were then mounted on Superfrost®, plus silanized glass slides. The microscopical observations were realized using a Leica DMLB or Olympus BX43 microscope. Pictures were digitized with a numeric DP72 Olympus camera with CellSens storing software.
The cell viability of the epidermal and dermal structures was assessed by microscopical observation of formalin-fixed paraffin-embedded (FFPE) skin sections after Masson's trichrome staining, Goldner variant.

Chain of SIK1 (P57059 whole entry): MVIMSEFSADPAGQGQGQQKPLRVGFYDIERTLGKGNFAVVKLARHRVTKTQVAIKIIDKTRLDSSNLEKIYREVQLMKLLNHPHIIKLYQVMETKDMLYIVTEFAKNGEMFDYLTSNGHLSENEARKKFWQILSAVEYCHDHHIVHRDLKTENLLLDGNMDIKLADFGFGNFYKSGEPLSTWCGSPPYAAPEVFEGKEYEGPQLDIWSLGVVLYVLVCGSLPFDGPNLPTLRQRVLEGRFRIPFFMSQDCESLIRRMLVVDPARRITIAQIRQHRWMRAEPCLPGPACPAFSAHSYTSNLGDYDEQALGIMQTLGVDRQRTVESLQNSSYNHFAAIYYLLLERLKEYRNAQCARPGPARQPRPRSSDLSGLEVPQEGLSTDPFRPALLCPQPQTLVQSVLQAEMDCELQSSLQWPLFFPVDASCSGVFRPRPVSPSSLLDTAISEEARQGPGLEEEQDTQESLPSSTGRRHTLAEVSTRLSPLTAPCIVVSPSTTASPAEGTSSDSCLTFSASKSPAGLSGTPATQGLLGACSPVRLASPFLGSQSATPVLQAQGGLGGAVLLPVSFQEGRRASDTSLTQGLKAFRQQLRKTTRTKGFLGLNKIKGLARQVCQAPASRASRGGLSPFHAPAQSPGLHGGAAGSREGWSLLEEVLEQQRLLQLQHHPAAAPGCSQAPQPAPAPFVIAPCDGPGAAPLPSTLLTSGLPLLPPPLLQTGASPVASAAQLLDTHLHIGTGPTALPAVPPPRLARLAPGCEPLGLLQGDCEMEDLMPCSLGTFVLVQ

Work on `COc1cc(F)c2cc1Nc1ncc3c(n1)N(CCCC(=O)OC2)C(=O)N(c1c(C)cccc1C)C3` yielded a ring closure, isolated yield ([1]; from COc1cc(F)c(CO)cc1Nc1ncc2c(n1)N(CCCC(=O)O)C(=O)N(c1c(C)cccc1C)C2, 14-membered ring, DCC/DMAP/3A MS, DCM/DMF, 6.89 mM, 25.0 °C, 16.0 h) of 57%.

Compound `COc1cc(N2CCN(C)CC2)c2cc1Nc1ncc3c(n1)N(CCCC(=O)OC2)C(=O)N(c1c(C)cccc1C)C3` has a ring closure, isolated yield ([1]; from COc1cc(N2CCN(C)CC2)c(CO)cc1Nc1ncc2c(n1)N(CCCC(=O)O)C(=O)N(c1c(C)cccc1C)C2, 14-membered ring, DCC/DMAP/3A MS, DCM/DMF, 6.69 mM, 25.0 °C, 16.0 h) of 6%.

With `CCCCCCCCCCCCOS(=O)(=O)[O-].[Na+]` [SDS, reference compound] the viability of cells (B16 4A5 cells; SDS 0.05%, compared to untreated cells) was “strongly and significantly diminished”.

In the case of `COC(=O)CCCN1C(=O)N(c2c(C)cccc2C)Cc2cnc(Nc3ccc(N4CCN(C)CC4)c(CO)c3)nc21` [SLT-019], the IC50 (SIK (h) / SIK1; Table 5, macrocycle precursors) was 2 nM, the IC50 (SIK3 (h); Table 5, macrocycle precursors) was 8 nM and the IC50 (SIK2 (h); Table 5, macrocycle precursors) was 3 nM.

`Cc1cccc(C)c1N1Cc2cnc(Nc3ccc(N4CCN(C)CC4)c(CO)c3)nc2N(CCC(=O)O)C1=O` [SLT-020] showed an IC50 (SIK (h) / SIK1; Table 5, macrocycle precursors) of 5 nM, an IC50 (SIK3 (h); Table 5, macrocycle precursors) of 43 nM and an IC50 (SIK2 (h); Table 5, macrocycle precursors) of 10 nM.

Work on `Cc1cccc(C)c1N1Cc2cnc3nc2N(CCC(=O)OCc2cc(ccc2N2CCN(C)CC2)N3)C1=O` [SLT-023] yielded a pEC50 (SIK1) of 7.06, an IC50 (SIK (h) / SIK1; Table 6, macrocycles) of 3 nM and a ring closure, isolated yield ([1]; from Cc1cccc(C)c1N1Cc2cnc(Nc3ccc(N4CCN(C)CC4)c(CO)c3)nc2N(CCC(=O)O)C1=O, 13-membered ring, EDC.HCl/HOBt/DMAP/3A MS, DCM, 8.04 mM, 25.0 °C, 16.0 h) of 33%. The “cell viability of epidermal and dermal structures” value [2] was “very slightly decreased”, the cell viability (B16 4A5 cells; 0.7 μg/mL, compared with DMSO 0.1% control) was “slightly decreased” and the viability of cells (B16 4A5 cells; 5 μg/mL, compared with DMSO 0.1% control) was “slightly diminished”. It also gave an IC50 (SIK3 (h); Table 6, macrocycles) of 18 nM and an IC50 (SIK2 (h); Table 6, macrocycles) of 3 nM.

`Cc1cccc(C)c1N1Cc2cnc(Nc3ccc(N4CCN(C)CC4)c(CO)c3)nc2N(CCCC(=O)O)C1=O` [SLT-025] gave an IC50 (SIK (h) / SIK1; Table 5, macrocycle precursors) of 3 nM, an IC50 (SIK3 (h); Table 5, macrocycle precursors) of 21 nM and an IC50 (SIK2 (h); Table 5, macrocycle precursors) of 6 nM.

With `Cc1cccc(C)c1N1Cc2cnc(Nc3ccc(N4CCN(C)CC4)c(CO)c3)nc2N(CCCCC(=O)O)C1=O` [SLT-027] the pEC50 (SIK1) was 6.39, the IC50 (SIK (h) / SIK1; Table 5, macrocycle precursors) was 2 nM and the IC50 (SIK3 (h); Table 5, macrocycle precursors) was 21 nM. For the same compound, the IC50 (SIK2 (h); Table 5, macrocycle precursors) was 5 nM.

`Cc1cccc(C)c1N1Cc2cnc3nc2N(CCCCC(=O)OCc2cc(ccc2N2CCN(C)CC2)N3)C1=O` [SLT-033] gave a pEC50 (SIK1) of 8.22, a ring closure, isolated yield ([1]; from Cc1cccc(C)c1N1Cc2cnc(Nc3ccc(N4CCN(C)CC4)c(CO)c3)nc2N(CCCCC(=O)O)C1=O, 15-membered ring, DCC/DMAP/3A MS, DCM/DMF, 7.69 mM, 25.0 °C) of 14% and an IC50 (SIK2 (h); Table 6, macrocycles) of 0.8 nM.

For `Cc1cccc(C)c1N1Cc2cnc3nc2N(CCCCCOC(=O)c2cc(ccc2N2CCN(C)CC2)N3)C1=O` [SLT-038], the pEC50 (SIK1) was 8.36, the ring closure, isolated yield ([1]; from Cc1cccc(C)c1N1Cc2cnc(Nc3ccc(N4CCN(C)CC4)c(C(=O)O)c3)nc2N(CCCCCO)C1=O, 15-membered ring, 2,4,6-trichlorobenzoyl chloride/TEA, DMAP, toluene/DMF, 5.0 mM, 110.0 °C, 16.0 h) was 6% and the IC50 (SIK2 (h); Table 6, macrocycles) was 1 nM.

`Cc1cccc(C)c1N1Cc2cnc3nc2N(CCCOC(=O)c2cc(ccc2N2CCN(C)CC2)N3)C1=O` [SLT-041] showed a pEC50 (SIK1) of 7.98 and a ring closure, isolated yield ([1]; from Cc1cccc(C)c1N1Cc2cnc(Nc3ccc(N4CCN(C)CC4)c(C(=O)O)c3)nc2N(CCCO)C1=O, 13-membered ring, EDC.HCl/HOBt/DMAP/3A MS, DCM, 7.99 mM, 50.0 °C, 16.0 h) of 30%.

Compound `COc1cc(Br)c2cc1Nc1ncc3c(n1)N(CCCC(=O)OC2)C(=O)N(c1c(C)cccc1C)C3` [SLT-058] has an IC50 (SIK (h) / SIK1; Table 6, macrocycles) of 26 nM, a ring closure, isolated yield ([1]; from COc1cc(Br)c(CO)cc1Nc1ncc2c(n1)N(CCCC(=O)O)C(=O)N(c1c(C)cccc1C)C2, 14-membered ring, DCC/DMAP/3A MS, DCM/DMF, 4.96 mM, 25.0 °C, 16.0 h) of 20% and an IC50 (SIK3 (h); Table 6, macrocycles) of 339 nM. It also gave an IC50 (SIK2 (h); Table 6, macrocycles) of 201 nM.

With `Cc1cccc(C)c1N1Cc2cnc3nc2N(CCCCOC(=O)Cc2cc(ccc2N2CCN(C)CC2)N3)C1=O` [SLT-059] the IC50 (SIK (h) / SIK1; Table 6, macrocycles) was 286 nM, the ring closure, isolated yield ([1]; from Cc1cccc(C)c1N1Cc2cnc(Nc3ccc(N4CCN(C)CC4)c(CC(=O)O)c3)nc2N(CCCCO)C1=O, 15-membered ring, 2,4,6-trichlorobenzoyl chloride/TEA, DMAP, toluene/DMF, 5.0 mM, 110.0 °C, 16.0 h) was 13% and the pIC50 (SIK2 (h)) was < 6.30. The IC50 (SIK2 (h); Table 6, macrocycles) was 250 nM.

Work on `Cc1cccc(C)c1N1Cc2cnc3nc2N(C/C=C/CC(=O)OCc2cc(ccc2N2CCN(C)CC2)N3)C1=O` [SLT-061] yielded an IC50 (SIK2 (h); Table 6, macrocycles) of 2 nM.

`Cc1cccc(C)c1N1Cc2cnc3nc2N(C/C=C\CC(=O)OCc2cc(ccc2N2CCN(C)CC2)N3)C1=O` [SLT-062] showed a pIC50 (SIK2 (h)) of 9.10.

In the case of `Cc1cccc(C)c1N1Cc2cnc3nc2N(C/C=C/COC(=O)Cc2cc(ccc2N2CCN(C)CC2)N3)C1=O` [SLT-068], the IC50 (SIK2 (h); Table 6, macrocycles) was 17 nM.

`Cc1cccc(C)c1N1Cc2cnc3nc2N(CCCCOC(=O)C(C)c2cc(ccc2N2CCN(C)CC2)N3)C1=O` (centres unmarked) [SLT-070] showed an IC50 (SIK2 (h); Table 6, macrocycles) of 2 nM.

Compound `Cc1cccc(C)c1N1Cc2cnc3nc2N(CCCOC(=O)C(C)c2cc(ccc2N2CCN(C)CC2)N3)C1=O` (centres unmarked) [SLT-071] has an IC50 (SIK2 (h); Table 6, macrocycles) of 3 nM.

Work on `Cc1cccc(C)c1N1Cc2cnc3nc2N(C/C=C\C(=O)OCc2cc(ccc2N2CCN(C)CC2)N3)C1=O` [SLT-073] yielded a pIC50 (SIK2 (h)) of 9.15.

Compound `Cc1cccc(C)c1N1Cc2cnc3nc2N(C/C=C/CCOC(=O)c2cc(ccc2N2CCN(C)CC2)N3)C1=O` [SLT-079] has an IC50 (SIK2 (h); Table 6, macrocycles) of 1 nM.
